Laboratory results from patent US20140120232A1, “ACID TASTE/ACID SMELL-REDUCING AGENT” (T. HASEGAWA CO., LTD., priority 2011, published 2014).

Test: Sensory evaluation of yogurt containing the agent
Conditions: ten panels
Description: Sensory evaluation of each drink was carried out by ten panels. […] The piercing aroma characteristic to aldehydes is a characteristic aroma common to every aldehyde and refers to an irritant off-smell giving an image of deteriorated oils and fats, soap, metals, Houttuynia cordata, etc. The judgment of smell was performed by comparing the effects at different concentrations of the acid taste and/or acid smell-reducing agent, and a concentration giving the highest acid taste/acid smell quality was selected.
A yogurt base material as a control was prepared by mixing 100 parts by mass of commercially available plain yogurt (milk non-fat solids: 9.5%, milk fat component: 3.0%) with 0.1 parts by mass of acetic acid (glacial acetic acid: food additive, manufactured by Junsei Chemical Co., Ltd.) with stirring. To the resulting mixture was added (Z,Z)-4,7-tridecadienal as the acid taste and/or acid smell-reducing agent of the present invention in concentrations shown in the following Table 9 to give yogurt containing the agent, followed by sensory evaluation as in Example 1.

For `CCCCC/C=C\C/C=C\CCC=O` [(Z,Z)-4,7-tridecadienal], the “A: number of panels, acid taste/acid smell extreme and cause irritation” value (0.005 ppt) was 10, the “B: number of panels, acid taste/acid smell slightly strong and slightly cause irritation” value (0.005 ppt) was 0 and the “C: number of panels, acid taste/acid smell slightly unpleasant” value (0.005 ppt) was 0. The “Flavor judgment: number of panels who judged acid taste/acid smell quality the highest” value (0.005 ppt) was 0, the “N: number of panels, irritation of acid reduced to give a mild acid taste” value (0.005 ppt) was 0 and the “X: number of panels, acid taste reduced but piercing odor characteristic to aldehydes unpleasant” value (0.005 ppt) was 0. The “A: number of panels, acid taste/acid smell extreme and cause irritation” value (0.02 ppt) was 8, the “B: number of panels, acid taste/acid smell slightly strong and slightly cause irritation” value (0.02 ppt) was 2 and the “C: number of panels, acid taste/acid smell slightly unpleasant” value (0.02 ppt) was 0. For the same compound, the “Flavor judgment: number of panels who judged acid taste/acid smell quality the highest” value (0.02 ppt) was 0, the “N: number of panels, irritation of acid reduced to give a mild acid taste” value (0.02 ppt) was 0 and the “X: number of panels, acid taste reduced but piercing odor characteristic to aldehydes unpleasant” value (0.02 ppt) was 0. For the same compound, the “A: number of panels, acid taste/acid smell extreme and cause irritation” value (0.1 ppt) was 5, the “B: number of panels, acid taste/acid smell slightly strong and slightly cause irritation” value (0.1 ppt) was 3 and the “C: number of panels, acid taste/acid smell slightly unpleasant” value (0.1 ppt) was 2. For the same compound, the “Flavor judgment: number of panels who judged acid taste/acid smell quality the highest” value (0.1 ppt) was 0, the “N: number of panels, irritation of acid reduced to give a mild acid taste” value (0.1 ppt) was 0 and the “X: number of panels, acid taste reduced but piercing odor characteristic to aldehydes unpleasant” value (0.1 ppt) was 0. The “A: number of panels, acid taste/acid smell extreme and cause irritation” value (0.2 ppt) was 4, the “B: number of panels, acid taste/acid smell slightly strong and slightly cause irritation” value (0.2 ppt) was 3 and the “C: number of panels, acid taste/acid smell slightly unpleasant” value (0.2 ppt) was 3. For the same compound, the “Flavor judgment: number of panels who judged acid taste/acid smell quality the highest” value (0.2 ppt) was 0, the “N: number of panels, irritation of acid reduced to give a mild acid taste” value (0.2 ppt) was 0 and the “X: number of panels, acid taste reduced but piercing odor characteristic to aldehydes unpleasant” value (0.2 ppt) was 0. For the same compound, the “A: number of panels, acid taste/acid smell extreme and cause irritation” value (0.5 ppt) was 1, the “B: number of panels, acid taste/acid smell slightly strong and slightly cause irritation” value (0.5 ppt) was 1 and the “C: number of panels, acid taste/acid smell slightly unpleasant” value (0.5 ppt) was 2. For the same compound, the “Flavor judgment: number of panels who judged acid taste/acid smell quality the highest” value (0.5 ppt) was 1, the “N: number of panels, irritation of acid reduced to give a mild acid taste” value (0.5 ppt) was 6 and the “X: number of panels, acid taste reduced but piercing odor characteristic to aldehydes unpleasant” value (0.5 ppt) was 0. For the same compound, the “A: number of panels, acid taste/acid smell extreme and cause irritation” value (1 ppb) was 0, the “B: number of panels, acid taste/acid smell slightly strong and slightly cause irritation” value (1 ppb) was 0 and the “C: number of panels, acid taste/acid smell slightly unpleasant” value (1 ppb) was 3. The “Flavor judgment: number of panels who judged acid taste/acid smell quality the highest” value (1 ppb) was 0, the “N: number of panels, irritation of acid reduced to give a mild acid taste” value (1 ppb) was 3 and the “X: number of panels, acid taste reduced but piercing odor characteristic to aldehydes unpleasant” value (1 ppb) was 4. The “A: number of panels, acid taste/acid smell extreme and cause irritation” value (1 ppt) was 0, the “B: number of panels, acid taste/acid smell slightly strong and slightly cause irritation” value (1 ppt) was 1 and the “C: number of panels, acid taste/acid smell slightly unpleasant” value (1 ppt) was 3. For the same compound, the “Flavor judgment: number of panels who judged acid taste/acid smell quality the highest” value (1 ppt) was 2, the “N: number of panels, irritation of acid reduced to give a mild acid taste” value (1 ppt) was 6 and the “X: number of panels, acid taste reduced but piercing odor characteristic to aldehydes unpleasant” value (1 ppt) was 0. The “A: number of panels, acid taste/acid smell extreme and cause irritation” value (5 ppt) was 0, the “B: number of panels, acid taste/acid smell slightly strong and slightly cause irritation” value (5 ppt) was 0 and the “C: number of panels, acid taste/acid smell slightly unpleasant” value (5 ppt) was 2. The “Flavor judgment: number of panels who judged acid taste/acid smell quality the highest” value (5 ppt) was 4, the “N: number of panels, irritation of acid reduced to give a mild acid taste” value (5 ppt) was 8 and the “X: number of panels, acid taste reduced but piercing odor characteristic to aldehydes unpleasant” value (5 ppt) was 0. For the same compound, the “A: number of panels, acid taste/acid smell extreme and cause irritation” value (10 ppb) was 0, the “B: number of panels, acid taste/acid smell slightly strong and slightly cause irritation” value (10 ppb) was 0 and the “C: number of panels, acid taste/acid smell slightly unpleasant” value (10 ppb) was 2. For the same compound, the “Flavor judgment: number of panels who judged acid taste/acid smell quality the highest” value (10 ppb) was 0, the “N: number of panels, irritation of acid reduced to give a mild acid taste” value (10 ppb) was 2 and the “X: number of panels, acid taste reduced but piercing odor characteristic to aldehydes unpleasant” value (10 ppb) was 6. The “A: number of panels, acid taste/acid smell extreme and cause irritation” value (20 ppt) was 0, the “B: number of panels, acid taste/acid smell slightly strong and slightly cause irritation” value (20 ppt) was 0 and the “C: number of panels, acid taste/acid smell slightly unpleasant” value (20 ppt) was 4. For the same compound, the “Flavor judgment: number of panels who judged acid taste/acid smell quality the highest” value (20 ppt) was 3, the “N: number of panels, irritation of acid reduced to give a mild acid taste” value (20 ppt) was 6 and the “X: number of panels, acid taste reduced but piercing odor characteristic to aldehydes unpleasant” value (20 ppt) was 0. For the same compound, the “A: number of panels, acid taste/acid smell extreme and cause irritation” value (50 ppb) was 0, the “B: number of panels, acid taste/acid smell slightly strong and slightly cause irritation” value (50 ppb) was 0 and the “C: number of panels, acid taste/acid smell slightly unpleasant” value (50 ppb) was 1. The “Flavor judgment: number of panels who judged acid taste/acid smell quality the highest” value (50 ppb) was 0, the “N: number of panels, irritation of acid reduced to give a mild acid taste” value (50 ppb) was 1 and the “X: number of panels, acid taste reduced but piercing odor characteristic to aldehydes unpleasant” value (50 ppb) was 8. The “A: number of panels, acid taste/acid smell extreme and cause irritation” value (100 ppt) was 0, the “B: number of panels, acid taste/acid smell slightly strong and slightly cause irritation” value (100 ppt) was 1 and the “C: number of panels, acid taste/acid smell slightly unpleasant” value (100 ppt) was 3. The “Flavor judgment: number of panels who judged acid taste/acid smell quality the highest” value (100 ppt) was 0, the “N: number of panels, irritation of acid reduced to give a mild acid taste” value (100 ppt) was 4 and the “X: number of panels, acid taste reduced but piercing odor characteristic to aldehydes unpleasant” value (100 ppt) was 2. For the same compound, the “A: number of panels, acid taste/acid smell extreme and cause irritation” value (500 ppt) was 0, the “B: number of panels, acid taste/acid smell slightly strong and slightly cause irritation” value (500 ppt) was 0 and the “C: number of panels, acid taste/acid smell slightly unpleasant” value (500 ppt) was 3. The “Flavor judgment: number of panels who judged acid taste/acid smell quality the highest” value (500 ppt) was 0, the “N: number of panels, irritation of acid reduced to give a mild acid taste” value (500 ppt) was 4 and the “X: number of panels, acid taste reduced but piercing odor characteristic to aldehydes unpleasant” value (500 ppt) was 3.
